Our source for the T/C values is PubChem BioAssay AID248 (DTP/NCI, 2004).

Values joined by “and” are separate entries in the source; they are usually repeats but may differ in a detail not shown here. Identical values can stand only once. Inconclusive results and toxic doses are left out.

The experiment relates to L1210 leukemia ip in BDF1 mice, survival T/C. Kind of experiment: NCI In Vivo Anticancer Drug Screen. Data for tumor model L1210 Leukemia (intraperitoneal) in B6D2F1 (BDF1) mice. The note with it: endpoint: mean survival time, higher = longer survival. Summed up:
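Tumor cells were implanted, animals were treated, and survival was followed. The result divides the treated measurement by the vehicle-control measurement.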

The mark [1] stands for this setting: dose: 100.0 mg/kg/injection, schedule: Q01DX009 (ip), vehicle: Klucel (hydroxypropylcellulose) (HPC).
The mark [2] stands for this setting: dose: 200.0 mg/kg/injection, schedule: Q01DX009 (ip), vehicle: Klucel (hydroxypropylcellulose) (HPC).
Setting [3] is: dose: 400.0 mg/kg/injection, schedule: Q01DX009 (ip), vehicle: Klucel (hydroxypropylcellulose) (HPC).
Setting [4] is: dose: 50.0 mg/kg/injection, schedule: Q01DX001 (ip), vehicle: saline.
The mark [5] stands for this setting: dose: 100.0 mg/kg/injection, schedule: Q01DX001 (ip), vehicle: saline.
Where [6] appears, read: dose: 200.0 mg/kg/injection, schedule: Q01DX001 (ip), vehicle: saline.
The mark [7] stands for this setting: dose: 400.0 mg/kg/injection, schedule: Q01DX001 (ip), vehicle: saline.
Setting [8] is: dose: 100.0 mg/kg/injection, schedule: Q04DX002 (ip), vehicle: saline with Tween-80.
The mark [9] stands for this setting: dose: 400.0 mg/kg/injection, schedule: Q04DX002 (ip), vehicle: saline with Tween-80.
[10] abbreviates: dose: 25.0 mg/kg/injection, schedule: Q01DX009 (ip), vehicle: saline.
Setting [11] is: dose: 50.0 mg/kg/injection, schedule: Q01DX009 (ip), vehicle: saline.
Where [12] appears, read: dose: 100.0 mg/kg/injection, schedule: Q01DX009 (ip), vehicle: saline.
Setting [13] is: dose: 200.0 mg/kg/injection, schedule: Q01DX009 (ip), vehicle: saline.
Setting [14] is: dose: 100.0 mg/kg/injection, schedule: Q04DX003 (ip), vehicle: saline.
Where [15] appears, read: dose: 200.0 mg/kg/injection, schedule: Q04DX002 (ip), vehicle: saline with Tween-80.
[16] abbreviates: dose: 100.0 mg/kg/injection, schedule: Q01DX001 (ip), vehicle: Klucel (hydroxypropylcellulose) (HPC).

In the case of `Cc1cc(Cl)ccc1OC(=O)Nc1cccc(Cl)c1Cl`, the T/C under setting [1] was 102 % of control, the T/C under setting [2] was 89 % of control and the T/C under setting [3] was 94 % of control.

`COC(=O)C1CCN(Cc2ccccc2)CC1=O` (stereo not drawn): the T/C by setting is: under setting [4], 110 % of control; under setting [5], 104 % of control; under setting [6], 104 % of control; under setting [7], 104 % of control.

For the compound `CS/C([S-])=N/[NH-].CS/C([S-])=N/[NH-].[Pd]`, the T/C was 98 % of control (dose: 3.13 mg/kg/injection, schedule: Q01DX009 (ip), vehicle: saline with Tween-80); 100 % of control (dose: 6.25 mg/kg/injection, schedule: Q01DX009 (ip), vehicle: saline with Tween-80); 89 % of control (dose: 12.5 mg/kg/injection, schedule: Q01DX009 (ip), vehicle: saline with Tween-80).

Regarding `OCc1ccccc1NCc1ccccc1`, the T/C is, setting by setting: under setting [1], 103 % of control; (dose: 100.0 mg/kg/injection, schedule: Q04DX003 (ip), vehicle: other) 105 % of control; under setting [2], 91 % of control; (dose: 200.0 mg/kg/injection, schedule: Q04DX003 (ip), vehicle: other) 100 % of control; under setting [3], 99 % of control; (dose: 400.0 mg/kg/injection, schedule: Q04DX003 (ip), vehicle: other) 97 % of control.

`CCOC(=O)Nc1ccc(NC(C)=O)cc1`: the T/C is 104 % of control under setting [1], 98 % of control under setting [2] and 93 % of control under setting [3].

As to `N#CCCN(C(=O)Nc1ccccc1)C1CCCCC1`, the T/C reads like this: (dose: 100.0 mg/kg/injection, schedule: Q01DX Z (ip), vehicle: methylcellulose (MC)) 101 % of control; (dose: 200.0 mg/kg/injection, schedule: Q01DX Z (ip), vehicle: methylcellulose (MC)) 89 % of control.

For the compound `COc1ccc(NC(=O)Nc2ccccc2Cl)c(OC)c1`, the T/C under setting [8] was 87 % of control and the T/C under setting [9] is 87 % of control.

On to `CNC(=O)N(C)N`, for which the T/C runs as follows: (dose: 12.5 mg/kg/injection, schedule: Q01DX009 (ip), vehicle: saline) 97 % of control; under setting [10], 95 % of control; under setting [11], 119 % of control.

Turning to `C#CCOP(=O)(OCC)OCC`, the T/C was 105 % of control under setting [12] and 103 % of control under setting [13].

On to `CCOc1ccc(Br)cc1/C=N\N=C\c1cc(Br)ccc1OCC`, for which the T/C is 101 % of control under setting [10], 100 % of control under setting [11], 100 % of control under setting [12] and 86 % of control under setting [14].

In the case of `O=C(CCCC(=O)NNC(=O)Nc1cccc(S(=O)(=O)F)c1)NNC(=O)Nc1cccc(S(=O)(=O)F)c1`, the T/C by setting is: under setting [4], 106 % of control; under setting [5], 112 % of control; under setting [6], 96 % of control; under setting [7], 112 % of control.

In the case of `COc1cc(/C=N\Nc2ccccc2)ccc1OC(=O)c1ccccc1`, the T/C by setting is: under setting [8], 91 % of control; under setting [15], 91 % of control; under setting [9], 98 % of control.

`O=NN(CCCl)C(=O)NC1CCC(C(=O)O)CC1` (stereo not drawn): the T/C reads like this: (dose: 6.0 mg/kg/injection, schedule: Q01DX001 (ip), vehicle: saline with Tween-80) 168 % of control; (dose: 9.0 mg/kg/injection, schedule: Q01DX001 (ip), vehicle: saline with Tween-80) 195 % of control and 215 % of control; (dose: 13.0 mg/kg/injection, schedule: Q01DX001 (ip), vehicle: saline with Tween-80) 275 % of control and 154 % of control and 260 % of control; (dose: 20.0 mg/kg/injection, schedule: Q01DX001 (ip), vehicle: saline with Tween-80) 291 % of control and 409 % of control; (dose: 30.0 mg/kg/injection, schedule: Q01DX001 (ip), vehicle: saline with Tween-80) 310 % of control; (dose: 45.0 mg/kg/injection, schedule: Q01DX001 (ip), vehicle: saline with Tween-80) 544 % of control. In addition, the T/C (dose: 46.0 mg/kg/injection, schedule: Q01DX001 (ip), vehicle: saline with Tween-80) is 311 % of control and 191 % of control; the T/C (dose: 67.5 mg/kg/injection, schedule: Q01DX001 (ip), vehicle: saline with Tween-80) is 525 % of control; the T/C (dose: 93.0 mg/kg/injection, schedule: Q01DX001 (ip), vehicle: saline with Tween-80) is 209 % of control and 101 % of control; the T/C (dose: 139.0 mg/kg/injection, schedule: Q01DX001 (ip), vehicle: saline with Tween-80) was 91 % of control.

Take `CCC[Si](C)(C)CCC`: the T/C by setting is: under setting [5], 100 % of control; under setting [6], 98 % of control; under setting [7], 100 % of control.

For the compound `COC(=O)c1cc(Cl)cc(N)c1Cl`, the T/C is, setting by setting: (dose: 100.0 mg/kg/injection, schedule: Q04DX002 (ip), vehicle: Klucel (hydroxypropylcellulose) (HPC)) 98 % of control; (dose: 200.0 mg/kg/injection, schedule: Q04DX002 (ip), vehicle: Klucel (hydroxypropylcellulose) (HPC)) 98 % of control; (dose: 400.0 mg/kg/injection, schedule: Q04DX002 (ip), vehicle: Klucel (hydroxypropylcellulose) (HPC)) 91 % of control.

As to `Nc1nc(N)c(-c2ccc(Cl)c(Cl)c2)c(COc2ccc(CNS(=O)(=O)c3ccc(S(=O)(=O)F)cc3)cc2Cl)n1`, the T/C was 94 % of control (dose: 25.0 mg/kg/injection, schedule: Q01DX001 (ip), vehicle: Klucel (hydroxypropylcellulose) (HPC)); 94 % of control (dose: 50.0 mg/kg/injection, schedule: Q01DX001 (ip), vehicle: Klucel (hydroxypropylcellulose) (HPC)); 96 % of control under setting [16].

For `CCCC[N+](CC)(CC)CCOC(=O)C1C2CC3OC(=O)C1C3C2` (stereo not drawn), the T/C under setting [14] is 101 % of control.

Regarding `CNC(=O)Oc1cccc(NC(=O)OCC#CCCl)c1`, the T/C by setting is: (dose: 100.0 mg/kg/injection, schedule: Q01DX001 (ip), vehicle: saline with Tween-80) 92 % of control; (dose: 200.0 mg/kg/injection, schedule: Q01DX001 (ip), vehicle: saline with Tween-80) 90 % of control; (dose: 400.0 mg/kg/injection, schedule: Q01DX001 (ip), vehicle: saline with Tween-80) 90 % of control.

As to `Cc1cc(N=Nc2ccc([N+](=O)[O-])cc2)ccc1O`, the T/C under setting [16] was 98 % of control and the T/C (dose: 200.0 mg/kg/injection, schedule: Q01DX001 (ip), vehicle: Klucel (hydroxypropylcellulose) (HPC)) is 95 % of control.

Consider `O=C1CCC(=O)C12CCNCC2`, for which the T/C was 97 % of control under setting [12]; 100 % of control under setting [14]; 104 % of control under setting [13]; 88 % of control (dose: 200.0 mg/kg/injection, schedule: Q04DX003 (ip), vehicle: saline); 107 % of control (dose: 400.0 mg/kg/injection, schedule: Q04DX003 (ip), vehicle: saline).

Regarding `CCCCC(=O)N/N=C/c1ccc(N(C)C)cc1Cl`, the T/C under setting [5] is 93 % of control, the T/C under setting [6] was 93 % of control and the T/C under setting [7] is 96 % of control.

With `CC(=O)OC(C[N+](=O)[O-])C(Cl)(Cl)Cl` (stereo not drawn), the T/C reads like this: (dose: 6.25 mg/kg/injection, schedule: Q01DX009 (ip), vehicle: saline sonified) 107 % of control; (dose: 12.5 mg/kg/injection, schedule: Q01DX009 (ip), vehicle: saline sonified) 107 % of control; (dose: 12.5 mg/kg/injection, schedule: Q04DX003 (ip), vehicle: Klucel (hydroxypropylcellulose) (HPC)) 97 % of control; (dose: 25.0 mg/kg/injection, schedule: Q01DX009 (ip), vehicle: saline sonified) 106 % of control; (dose: 25.0 mg/kg/injection, schedule: Q04DX003 (ip), vehicle: Klucel (hydroxypropylcellulose) (HPC)) 103 % of control.

As for `O=C1CC(C(=O)Nc2ccccc2)C(c2ccccc2)(c2ccccc2)O1` (stereo not drawn), the T/C is 97 % of control (dose: 100.0 mg/kg/injection, schedule: Q01DX001 (ip), vehicle: carboxymethylcellulose (CMC)); 106 % of control (dose: 200.0 mg/kg/injection, schedule: Q01DX001 (ip), vehicle: carboxymethylcellulose (CMC)); 95 % of control (dose: 400.0 mg/kg/injection, schedule: Q01DX001 (ip), vehicle: carboxymethylcellulose (CMC)).

On to `NC(=S)N/N=C/c1ccns1`, for which the T/C under setting [8] is 109 % of control, the T/C under setting [15] is 97 % of control and the T/C under setting [9] is 103 % of control.
